Reference: patent publication US4725683A, “Fluorophenoxyphenoxypropionates and derivatives thereof” (The Dow Chemical Company, priority 1985, dated 1988)

Legend:
Format in all cases: in vivo
[1] = tested on: Barnyard Grass; experiment: Postemergent activity
Protocol: (§1) Representative compositions of the present invention were evaluated for the postemergence control of species of plants listed in Table A. In these evaluations, pots of the plant species listed in Table A, grown to a height of about 10 cms, were used. Aqueous spray compositions, containing various amounts of 2-[4-(2-fluoro-4-trifluoromethylphenoxy)-phenoxy]propionic acid methy ester, i.e., 125 ppm, 62.5 ppm, 31.25 ppm, 15.6 ppm, 7.8 ppm and 3.9 ppm, respectively, were applied to separate pots. The spray compositions were made by mixing the active ingredient in acetone to 1/2 the final volume, i.e., twice the final concentration. An equal amount of water was added to the active ingredient/acetone mixture wherein the water contained 0.1 percent by weight of TWEEN® 200 surfactant. The application to the plants was made to the point of run-off and was carried out with conventional spraying equipment. Other pots were sprayed with similar compositions containing no toxicant to serve as controls. Thereafter, the pots were maintained under conditions conducive for plant growth. Two weeks after treatment, the pots were examined for plant growth and evaluated on a scale of 0 to 100 where 0 represents no effect and 100 represents complete kill. The results of the examination of the treated pots are set forth below in Table A.
(§2) Substantially the same procedures as those described in Example A were repeated except that the active ingredients were 2-[4-(4-chloro-2-fluorophenoxy)phenoxy]propionic acid; methyl ester and its R-enantiomer and 2-(4-(4-bromo-2-fluorophenoxy)phenoxy propionic acid; methyl ester and its R enantiomer. The results are listed below in Table B.
(§3) In further operations employing the above general procedures and the indicated test compounds the following results were obtained: […]

[2] = tested on: Crabgrass; experiment: Postemergent activity
Protocol: as §1, §2, §3

[3] = tested on: Wheat; experiment: Postemergent activity; details: Triticum aestivum, post-emergence, 336 h, read-out: % Control
Protocol: as §1, §2, §3

[4] = tested on: Wild Oats; experiment: Postemergent activity; details: Avena fatua, post-emergence, 336 h; for pest or weed control at 7.8 ppm / pest or weed control at 15.6 ppm / pest or weed control at 62.5 ppm / pest or weed control at 125 ppm / pest or weed control at 250 ppm: read-out: % Control
Protocol: as §1, §2, §3

[5] = tested on: Foxtail; experiment: Postemergent control of plant species
Protocol: as §1, §3

[6] = tested on: Foxtail; experiment: Postemergent control of plant species; details: 250 ppm

| SMILES | % Control ([1]; 7.8 ppm) | % Control ([1]; 15.6 ppm) | % Control ([1]; 31.2 ppm) | % Control ([1]; 62.5 ppm) | % Control ([1]; 125 ppm) | % Control ([1]; 250 ppm) | % Control ([2]; 7.8 ppm) | % Control ([2]; 15.6 ppm) | % Control ([2]; 31.2 ppm) | % Control ([2]; 62.5 ppm) | % Control ([2]; 125 ppm) | plant injury at 7.8 ppm [3] | plant injury at 15.6 ppm [3] | plant injury at 31.2 ppm [3] | plant injury at 62.5 ppm [3] | pest or weed control at 7.8 ppm [4] | pest or weed control at 15.6 ppm [4] | pest or weed control at 31.2 ppm [4] | pest or weed control at 62.5 ppm [4] | pest or weed control at 125 ppm [4] | other results |
| --- | --- | --- | --- | --- | --- | --- | --- | --- | --- | --- | --- | --- | --- | --- | --- | --- | --- | --- | --- | --- | --- |
| CCOC(=O)CC(O)C(C)Oc1ccc(Oc2ccc(Br)cc2F)cc1 (centres unmarked) | 0% | 0% | 80% | 100% | 100% | 100% | 0% | 20% | 20% | 100% | 100% | 0% | 0% | 0% | 0% | 0% | 0% | 0% | 0% | 50% | % Control ([2]; 250 ppm): 100%; pest or weed control at 250 ppm [4]: 50%; Percent Control ([5]; 7.8 ppm): 0%; Percent Control ([5]; 15.6 ppm): 0%; Percent Control ([5]; 31.2 ppm): 0%; Percent Control ([5]; 62.5 ppm): 100%; Percent Control ([5]; 125 ppm): 100%; Percent Control [6]: 100% |
| COC(=O)C=C(OC)C(C)Oc1ccc(Oc2ccc(Br)cc2F)cc1 (centres unmarked) | 0% | 0% | 0% | 0% | 0% | 0% | 0% | 0% | 20% | 95% | 98% | 0% | 0% | 0% | 0% | 0% | 0% | 0% | 0% | 0% | % Control ([2]; 250 ppm): 100%; plant injury at 125 ppm [3]: 0%; plant injury at 250 ppm ([3]; 250 ppm): 0%; pest or weed control at 250 ppm [4]: 0%; Percent Control ([5]; 7.8 ppm): 0%; Percent Control ([5]; 15.6 ppm): 0%; Percent Control ([5]; 31.2 ppm): 0%; Percent Control ([5]; 62.5 ppm): 0%; Percent Control ([5]; 125 ppm): 0%; Percent Control [6]: 100% |
| CC(=O)CC(O)C(C)Oc1ccc(Oc2ccc(Br)cc2F)cc1 (centres unmarked) | 0% | 0% | 0% | 0% | 0% | 0% | 0% | 0% | 0% | 95% | 95% | 0% | 0% | 0% | 0% | 0% | 0% | 0% | 0% | 0% | plant injury at 125 ppm [3]: 0%; pest or weed control at 250 ppm [4]: 0%; Percent Control ([5]; 7.8 ppm): 0%; Percent Control ([5]; 15.6 ppm): 0%; Percent Control ([5]; 31.2 ppm): 0%; Percent Control ([5]; 62.5 ppm): 0%; Percent Control ([5]; 125 ppm): 20%; Percent Control [6]: 25% |
